IC50 data for 16 compounds are collected here from patent US20220274961A1, “SUBSTITUTED FUSED BI- OR TRI- HETEROCYCLIC COMPOUNDS AS EHMT2 INHIBITORS” (priority 2016, published 2022).

The target of the experiment is T1, EHMT2 (Homo sapiens, UniProt Q96KQ7).
T1 construct: endogenous in cells; host or cells: MDA-MB-231 (ATCC)
T1 sequence (Q96KQ7 1-1210): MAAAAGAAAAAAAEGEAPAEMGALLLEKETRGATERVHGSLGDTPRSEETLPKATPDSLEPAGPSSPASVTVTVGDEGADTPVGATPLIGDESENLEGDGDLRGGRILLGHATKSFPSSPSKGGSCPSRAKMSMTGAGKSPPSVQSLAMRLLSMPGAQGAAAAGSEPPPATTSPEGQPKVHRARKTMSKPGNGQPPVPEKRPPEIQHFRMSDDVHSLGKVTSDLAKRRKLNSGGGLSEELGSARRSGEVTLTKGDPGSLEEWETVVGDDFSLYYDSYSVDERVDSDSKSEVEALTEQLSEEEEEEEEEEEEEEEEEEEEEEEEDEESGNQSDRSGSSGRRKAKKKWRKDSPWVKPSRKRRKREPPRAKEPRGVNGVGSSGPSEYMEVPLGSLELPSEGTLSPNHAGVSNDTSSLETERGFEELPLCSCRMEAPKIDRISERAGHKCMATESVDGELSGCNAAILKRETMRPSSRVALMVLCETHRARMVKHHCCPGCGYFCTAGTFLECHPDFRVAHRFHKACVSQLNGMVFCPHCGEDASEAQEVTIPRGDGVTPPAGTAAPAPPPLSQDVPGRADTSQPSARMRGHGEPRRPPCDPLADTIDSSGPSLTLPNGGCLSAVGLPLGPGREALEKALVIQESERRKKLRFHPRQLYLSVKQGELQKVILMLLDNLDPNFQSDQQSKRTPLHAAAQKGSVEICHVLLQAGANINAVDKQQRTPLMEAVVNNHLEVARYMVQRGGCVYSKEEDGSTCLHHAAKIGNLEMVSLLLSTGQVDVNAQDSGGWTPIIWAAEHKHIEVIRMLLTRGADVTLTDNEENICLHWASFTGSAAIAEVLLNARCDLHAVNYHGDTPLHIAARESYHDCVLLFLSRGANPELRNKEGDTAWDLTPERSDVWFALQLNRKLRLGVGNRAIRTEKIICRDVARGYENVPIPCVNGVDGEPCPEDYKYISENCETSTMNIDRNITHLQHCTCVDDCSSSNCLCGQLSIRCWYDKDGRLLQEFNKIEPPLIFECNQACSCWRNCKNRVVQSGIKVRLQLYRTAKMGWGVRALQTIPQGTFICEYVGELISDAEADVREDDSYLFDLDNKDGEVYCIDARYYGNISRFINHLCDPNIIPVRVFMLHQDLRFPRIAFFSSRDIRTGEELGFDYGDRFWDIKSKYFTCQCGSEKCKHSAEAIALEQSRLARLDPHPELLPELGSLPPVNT
In words: MDA-MB-231 H3K9me2 in-cell Western assay (EHMT2 ICW). It counts as cell-based. Particulars: MDA-MB-231 cells, H3K9me2 in-cell Western; read-out: EHMT2 ICW (IC50 μM). An excerpt: MDA-MB-231 cell line was purchased from ATCC (Manassas, Va., USA). RPMI/Glutamax medium, Penicillin-Streptomycin, Heat Inactivated Fetal Bovine Serum, and D-PBS were purchased from Life Technologies (Grand Island, N.Y., USA). Odyssey blocking buffer, 800CW goat anti-mouse IgG (H+L) antibody, and Licor Odyssey Infrared Scanner were purchased from Licor Biosciences, Lincoln, Nebr., USA. H3K9me2 mouse monoclonal antibody (Cat #1220) was purchased from Abcam (Cambridge, Mass., USA). 16% Paraformaldehyde was purchased from Electron Microscopy Sciences, Hatfield, Pa., USA). MDA-MB-231 cells were maintained in complete growth medium (RPMI supplemented with 10% v/v heat inactivated fetal bovine serum) and cultured at 37° C. under 5% CO2. UNC0638 was purchased from Sigma-Aldrich (St. Louis, Mo., USA).
General Procedure for MDA-MB-231 HEK9me2 in-cell Western Assay. Compound (100 nL) was added directly to 384-well cell plate. MDA-MB-231 cells (ATCC) were seeded in assay medium (RPMI/Glutamax supplemented with 10% v/v heat inactivated fetal bovine serum and 1% Penicillin/Streptomycin, Life Technologies) at a concentration of 3,000 cells per well to a Poly-D-Lysine coated 384-well cell culture plate with 50 μL per well. Plates were incubated at 37° C., 5% CO2 for 48 hours (BD Biosciences 356697). Plates were incubated at room temperature for 30 minutes and then incubated at 37° C., 5% CO2 for additional 48 hours. After the incubation, 50 μL per well of 8% paraformaldehyde (Electron Microscopy Sciences) in PBS was added to the plates and incubated at room temperature for 20 minutes. Plates were transferred to a Biotek 406 plate washer and washed 2 times with 100 μL per well of wash buffer (1×PBS containing 0.3% Triton X-100 (v/v)). Next, 60 μL per well of Odyssey blocking buffer (Licor Biosciences) was added to each plate and incubated for 1 hour at room temperature. Blocking buffer was removed and 20 μL of monoclonal primary antibody α-H3K9me2 (Abcam) diluted 1:800 in Odyssey buffer with 0.1% Tween 20 (v/v) were added and plates were incubated overnight (16 hours) at 4° C. Plates were washed 5 times with 100 μL per well of wash buffer. Next 20 μL per well of secondary antibody was added (1:500 800CW donkey anti-mouse IgG (H+L) antibody (Licor Biosciences), 1:1000 DRAQ5 (Cell Signaling Technology) in Odyssey buffer with 0.1% Tween 20 (v/v)) and incubated for 1 hour at room temperature. The plates were washed 5 times with […] wash buffer then 2 times with 100 μL per well of water. Plates were allowed to dry at room temperature then imaged on a Licor Odyssey Infrared Scanner (Licor Biosciences) which measured integrated intensity at 700 nm and 800 nm wavelengths. Both 700 and 800 channels were scanned.
% Inhibition Calculation. First, the ratio for each well was determined by:
Each plate included fourteen control wells of DMSO only treatment (Minimum Inhibition) as well as fourteen control wells (background wells) for maximum inhibition treated with control compound UNC0638 (Background wells).
The average of the ratio values for each well was calculated and used to determine the percent inhibition for each test well in the plate. Control compound was serially diluted three-fold in DMSO for a total of 10 test concentrations beginning at 1 μM. Percent inhibition was calculated as: […]
IC50 curves were generated using triplicate wells per concentration of compound. The IC50 is the concentration of compound at which measured methylation is inhibited by 50% as interpolated from the dose response curves. IC50 values were calculated using a non-linear regression (variable slope-four parameter fit model) with by the following formula:
where Top is fixed at 100% and Bottom is fixed to 0%, [I]=concentration of inhibitor, IC50=half maximal inhibitory concentration, and n=Hill Slope.
Consider `CNc1nc2cc(OCCCN3CCCC3)c(OC)cc2n1C(C)C` [Compound 36], for which the IC50 is < 0.1 µM.

For the compound `COc1cc2c(cc1CNCCN1CCCC1)N=C(NC1CCOCC1)C21CCC1` [Compound 76], the half-inhibitory concentration (IC50) is 1 to 10 µM.

In the case of `COc1cc2c(cc1OCCCN1CCCC1)nc(NC(C)C)n2C` [Compound 28], the IC50 lay within 1 to 10 µM.

Turning to `COc1cc2c(cc1C#CCN1CCCC1)N=C(N)C21CCC1` [Compound 24, 5′-methoxy-6′-(3-(pyrrolidin-1-yl)prop-1-yn-1-yl)spiro[cyclobutane-1,3′-indol]-2′-amine], the IC50 was < 0.1 µM.

As to `COc1cc2c(cc1OCCCN1CCCC1)nc(NCC(F)(F)F)n2C` [Compound 12, 6-methoxy-1-methyl-5-(3-(pyrrolidin-1-yl)propoxy)-N-(2,2,2-trifluoroethyl)-1H-benzo[d]imidazol-2-amine], the half-inhibitory concentration (IC50) was 1 to 10 µM.

On to `COc1cc2c(cc1OCCCN1CCCC1)nc(NC1CCCC1)n2C` [Compound 30], for which the half-maximal inhibitory concentration (IC50) lay within 1 to 10 µM.

As to `CNC1=Nc2cc(C#CCN3CCCCC3)c(OC)cc2C12CCC2` [Compound 75, 5′-methoxy-N-methyl-6′-(3-(piperidin-1-yl)prop-1-yn-1-yl)spiro[cyclobutane-1,3′-indol]-2′-amine], the concentration for half-maximal inhibition (IC50) is < 0.1 µM.

Consider `COc1cc2c(cc1OCCCN1CCCC1)nc(N)n2CC(F)(F)F` [Compound 11, 6-methoxy-5-(3-(pyrrolidin-1-yl)propoxy)-1-(2,2,2-trifluoroethyl)-1H-benzo[d]imidazole-2-amine], for which the concentration for half-maximal inhibition (IC50) fell in the range of 1 to 10 µM.

For the compound `COc1cc2c(cc1OC[C@H](O)CN1CCCC1)nc(NC1CCCC1)n2C` [Compound 33], the IC50 is 1 to 10 µM.

For `COc1cc2c(cc1OC[C@H](O)CN1CCCC1)nc(NC1CCOCC1)n2C` [Compound 35], the IC50 is > 10 µM.

Regarding `CCNc1nc2cc(OCCCN3CCCC3)c(OC)cc2n1C` [Compound 27], the IC50 was 0.1 to 1 µM.

As for `CCn1c(NC)nc2cc(CNCCN3CCCC3)c(OC)cc21` [Compound 41], the concentration for half-maximal inhibition (IC50) lay within 0.1 to 1 µM.

Take `CNc1nc2cc(CNCCN3CCCC3)c(Cl)cc2n1C(C)C` [Compound 138]: the 50% inhibitory concentration (IC50) was 1 to 10 µM.

`CNC1=Nc2cc(C#CCN3CCC(F)C3)c(OC)cc2C12CCC2` (stereo not shown) [Compound 100]: the IC50 was 1 to 10 µM.

For `CCNc1nc2cc(OCCCN3CCCC3)c(OC)cc2n1CC` [Compound 39], the half-inhibitory concentration (IC50) lay within 0.1 to 1 µM.

On to `CCCNC1=Nc2cc(CNCCN3CCCC3)c(OC)cc2C12CCC2` [Compound 73], for which the half-inhibitory concentration (IC50) fell in the range of 0.1 to 1 µM.
